For test [1], the target named is T1, 5-HT2C (Homo sapiens, UniProt P28335).
T1 sequence (P28335 33-458): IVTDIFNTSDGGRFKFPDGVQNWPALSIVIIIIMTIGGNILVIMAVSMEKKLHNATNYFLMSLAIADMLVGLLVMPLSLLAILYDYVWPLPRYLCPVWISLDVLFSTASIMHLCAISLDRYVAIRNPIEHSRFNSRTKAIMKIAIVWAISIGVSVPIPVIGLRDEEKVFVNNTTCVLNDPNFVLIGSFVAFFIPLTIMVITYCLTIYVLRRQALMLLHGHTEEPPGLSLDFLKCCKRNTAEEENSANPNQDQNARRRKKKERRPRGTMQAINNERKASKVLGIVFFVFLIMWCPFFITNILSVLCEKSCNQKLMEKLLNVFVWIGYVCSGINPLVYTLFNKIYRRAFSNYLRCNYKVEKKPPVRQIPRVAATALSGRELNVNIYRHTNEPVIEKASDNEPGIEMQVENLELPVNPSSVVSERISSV
To be noted: background; cited from earlier work.

Test [2] has as its target histamine H1 (Homo sapiens, UniProt P35367). Conditions: background; cited from earlier work.
The test system of test [3] is adrenergic receptor sites. To be noted: background; cited from earlier work.
The test system of test [4] is NMDA receptor. To be noted: noncompetitive NMDA receptor antagonists; background; cited from earlier work.
For test [5], the system named is patients with bipolar I disorder experiencing a manic or mixed episode. Put plainly: Multicenter, open-label study of memantine hydrochloride in acute treatment of hospitalized patients with bipolar I disorder (Example 1). Conditions: for MRS Total Score, Change at Day 21 (LOCF), Mean ± SEM / YMRS Total Score, Change at Day 21 (LOCF), Mean ± SEM / MRS Total Score, Change at Day 21 (OC), Mean ± SEM / YMRS Total Score, Change at Day 21 (OC), Mean ± SEM / CGI-I Rating, Day 21, Mean ± SEM / CGI-S Rating, Change at Day 21, Mean ± SEM / MADRS Total Score, Change at Day 21, Mean ± SEM / PANSS Total Score, Change at Day 21, Mean ± SEM / PANSS-EC Score, Change at Day 21, Mean ± SEM: 21 days; for MRS Total Score, Change at Day 21 (LOCF), Mean ± SEM / YMRS Total Score, Change at Day 21 (LOCF), Mean ± SEM / CGI-I Rating, Day 21, Mean ± SEM / CGI-S Rating, Change at Day 21, Mean ± SEM / MADRS Total Score, Change at Day 21, Mean ± SEM / PANSS Total Score, Change at Day 21, Mean ± SEM / PANSS-EC Score, Change at Day 21, Mean ± SEM / MRS Response, % of patients / MRS Response, n of patients / YMRS Response, % of patients / YMRS Response, n of patients: ITT; for MRS Total Score, Change at Day 21 (OC), Mean ± SEM / YMRS Total Score, Change at Day 21 (OC), Mean ± SEM: observed cases; for CGI-I Rating, Day 21, Mean ± SEM / CGI-S Rating, Change at Day 21, Mean ± SEM / MADRS Total Score, Change at Day 21, Mean ± SEM / PANSS Total Score, Change at Day 21, Mean ± SEM / PANSS-EC Score, Change at Day 21, Mean ± SEM / MRS Response, % of patients / MRS Response, n of patients / YMRS Response, % of patients / YMRS Response, n of patients: LOCF; for MRS Response, % of patients / MRS Response, n of patients / YMRS Response, % of patients / YMRS Response, n of patients: Day 21, response = ≧50% reduction in total score from baseline. Type of test: in vivo, human. From the text:
The entrance criteria for the patients included: Hospitalized adult inpatients, with bipolar I disorder by DSM-IV-TR criteria • Manic or mixed episode: ≧20 on the Young Mania Rating Scale (YMRS), with and without psychotic features; • Diagnosis based on clinical evaluation and confirmed using the Structured Clinical Interview for DSM Disorders. The following comorbid psychiatric diagnoses were allowed to enroll: Attention deficit hyperactivity disorder [ADHD], conduct disorder, obsessive-compulsive disorder, anxiety disorders, and substance abuse. Additional psychotropic medications were not allowed. Patients were assigned to 21-days of treatment in one of three groups: Group 1, 20 mg memantine hydrochloride per day (range 20-30 mg memantine per day); Group 2, 30 mg memantine hydrochloride per day (range 20-40 mg memantine per day); Group 3, 40 mg memantine hydrochloride per day (range 30-50 mg memantine per day). […] Dose modification was continued to study completion or early termination. Efficacy measures included the Young Mania Rating Scale (YMRS) and the Mania Rating Scale (MRS) (≧50% reduction in total score from baseline). The change from baseline was also assessed using the Positive and Negative Syndrome Scale (PANSS) in patients with psychiatric symptoms, Positive and Negative Syndrome Scale-Excited Component (PANSS-EC), Clinical Global Impression Severity (CGI-S) and Improvement (CGI-I) scores, and the change from baseline in the Montgomery Asberg Depression Rating Scale (MADRS). […] The mean duration of treatment was 16.1 days (Group I), 14.7 days (Group 2) and 17.3 days (Group 3).

Test [6] deals with ICV ouabain-induced motoric hyperactivity. To be noted: ouabain treated (ICV) versus sham 53.1±SD 50.0; El-Mallakh et al. 2003; cited from earlier work.
Where [7] appears, read: Group 1: 20 mg per day (range 20-30 mg), n=12.
[8] abbreviates: Group 1: 20 mg per day (range 20-30 mg), n=6.
The mark [9] stands for this setting: Group 2: 30 mg per day (range 20-40 mg), n=11.
Where [10] appears, read: Group 2: 30 mg per day (range 20-40 mg), n=6.
The mark [11] stands for this setting: Group 3: 40 mg per day (range 30-50 mg), n=10.
Setting [12] is: Group 3: 40 mg per day (range 30-50 mg), n=8.

Counter-ions that a name gives are not always drawn.

Chain of histamine H1 (P35367 whole entry): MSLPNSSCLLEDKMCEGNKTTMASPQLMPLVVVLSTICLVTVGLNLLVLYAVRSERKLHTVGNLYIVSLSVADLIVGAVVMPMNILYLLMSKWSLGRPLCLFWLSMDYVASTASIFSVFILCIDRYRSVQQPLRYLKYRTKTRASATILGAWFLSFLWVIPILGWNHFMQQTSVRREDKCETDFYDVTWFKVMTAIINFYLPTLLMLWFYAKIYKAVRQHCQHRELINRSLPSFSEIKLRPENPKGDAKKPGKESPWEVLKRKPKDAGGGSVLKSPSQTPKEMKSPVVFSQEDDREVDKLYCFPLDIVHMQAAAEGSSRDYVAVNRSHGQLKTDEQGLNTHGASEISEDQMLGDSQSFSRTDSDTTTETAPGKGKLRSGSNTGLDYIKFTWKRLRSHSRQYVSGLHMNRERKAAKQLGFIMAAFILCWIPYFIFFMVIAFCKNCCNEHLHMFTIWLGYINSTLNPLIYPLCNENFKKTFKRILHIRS

Regarding `CN(C)C(=O)N[C@H]1CC[C@H](CCN2CCN(c3cccc(Cl)c3Cl)CC2)CC1` [Cariprazine hydrochloride, trans-1-{4-[2-[4-(2,3-dichlorophenyl)-piperazin-1-yl]-ethyl]-cyclohexyl}-3,3-dimethyl-urea hydrochloride], the “Potency at 5-HT2C receptor site (in words)” value in test [1] was “low potency”. Also, the “Potency at histamine H1 receptor site (in words)” value in test [2] was “low potency”. Moreover, the “Potency at adrenergic receptor sites (in words)” value in test [3] is recorded as “low potency”.

On to `CC12CC3CC(C)(C1)CC(N)(C3)C2` [Memantine, 1-amino-3,5-dimethyl adamantane], for which the “Affinity for the NMDA receptor (in words)” value in test [4] is “moderate affinity”.

As for `CC12CC3CC(C)(C1)CC(N)(C3)C2` [memantine hydrochloride], in test [5] (setting [7]), the “MRS Total Score, Change at Day 21 (LOCF), Mean ± SEM” value was −9.8 ± 2.2 and the “YMRS Total Score, Change at Day 21 (LOCF), Mean ± SEM” value is −9.5 ± 2.8. Besides, in test [5] (setting [8]), the “MRS Total Score, Change at Day 21 (OC), Mean ± SEM” value is reported as −15.3 ± 1.7 and the “YMRS Total Score, Change at Day 21 (OC), Mean ± SEM” value is reported as −17.0 ± 1.9. For the same compound, in test [5] (Group 1: 20 mg per day, n=12), the “CGI-I Rating, Day 21, Mean ± SEM” value amounted to 3.3 ± 0.5; the “CGI-S Rating, Change at Day 21, Mean ± SEM” value is reported as −0.8 ± 0.3; the “MADRS Total Score, Change at Day 21, Mean ± SEM” value was −3.4 ± 1.8; the “PANSS Total Score, Change at Day 21, Mean ± SEM” value is on record as −5.1 ± 3.9. In test [5] (Group 1: 20 mg per day, n=12), the “PANSS-EC Score, Change at Day 21, Mean ± SEM” value was −0.7 ± 1.5; the “MRS Response, % of patients” value is 50.0%; the “MRS Response, n of patients” value amounted to 6 n; the “YMRS Response, % of patients” value worked out at 50.0%. The “YMRS Response, n of patients” value in test [5] (Group 1: 20 mg per day, n=12) was determined as 6 n. Further, in test [5] (setting [9]), the “MRS Total Score, Change at Day 21 (LOCF), Mean ± SEM” value was −7.4 ± 2.6 and the “YMRS Total Score, Change at Day 21 (LOCF), Mean ± SEM” value was −6.4 ± 3.8. For the same compound, in test [5] (setting [10]), the “MRS Total Score, Change at Day 21 (OC), Mean ± SEM” value is recorded as −13.0 ± 2.1 and the “YMRS Total Score, Change at Day 21 (OC), Mean ± SEM” value is recorded as −15.5 ± 1.5. In test [5] (Group 2: 30 mg per day, n=11), the “CGI-I Rating, Day 21, Mean ± SEM” value amounted to 3.6 ± 0.5; the “CGI-S Rating, Change at Day 21, Mean ± SEM” value is −0.7 ± 0.4; the “MADRS Total Score, Change at Day 21, Mean ± SEM” value is 0.0 ± 2.7; the “PANSS Total Score, Change at Day 21, Mean ± SEM” value is recorded as −1.5 ± 5.8. Besides, in test [5] (Group 2: 30 mg per day, n=11), the “PANSS-EC Score, Change at Day 21, Mean ± SEM” value is reported as −0.5 ± 1.8; the “MRS Response, % of patients” value stood at 27.3%; the “MRS Response, n of patients” value is 3 n; the “YMRS Response, % of patients” value stood at 45.5%. In test [5] (Group 2: 30 mg per day, n=11), the “YMRS Response, n of patients” value is 5 n. Moreover, in test [5] (setting [11]), the “MRS Total Score, Change at Day 21 (LOCF), Mean ± SEM” value was −7.2 ± 2.0 and the “YMRS Total Score, Change at Day 21 (LOCF), Mean ± SEM” value is given as −7.9 ± 2.4. In addition, in test [5] (setting [12]), the “MRS Total Score, Change at Day 21 (OC), Mean ± SEM” value is given as −9.3 ± 1.8 and the “YMRS Total Score, Change at Day 21 (OC), Mean ± SEM” value was −10 ± 2.3. Moreover, in test [5] (Group 3: 40 mg per day, n=10), the “CGI-I Rating, Day 21, Mean ± SEM” value is on record as 2.9 ± 0.5; the “CGI-S Rating, Change at Day 21, Mean ± SEM” value is recorded as −0.6 ± 0.3; the “MADRS Total Score, Change at Day 21, Mean ± SEM” value is −3.3 ± 1.7; the “PANSS Total Score, Change at Day 21, Mean ± SEM” value is on record as −7.7 ± 3.8. For the same compound, in test [5] (Group 3: 40 mg per day, n=10), the “PANSS-EC Score, Change at Day 21, Mean ± SEM” value is −0.7 ± 1.4; the “MRS Response, % of patients” value was determined as 10.0%; the “MRS Response, n of patients” value is 1 n; the “YMRS Response, % of patients” value amounted to 30.0%. Further, in test [5] (Group 3: 40 mg per day, n=10), the “YMRS Response, n of patients” value is recorded as 3 n. Besides, the “Effectiveness in the treatment of acute mania associated with bipolar disorder (in words)” value in test [5] (overall conclusion of Example 1) is “surprisingly effective”.

For `CC1(C)CC(C)(C)CC(C)(N)C1` [neramexane, 1-amino-1,3,3,5,5-pentamethylcyclohexane], in test [4], the “Affinity for the NMDA receptor (in words)” value is recorded as “moderate affinity”.

Take `C[C@@H]1O[C@@H](O[C@H]2C[C@@H](O)[C@]3(CO)[C@H]4[C@H](O)C[C@]5(C)[C@@H](C6=CC(=O)OC6)CC[C@]5(O)[C@@H]4CC[C@]3(O)C2)[C@H](O)[C@H](O)[C@H]1O` [ouabain]: in test [6], the “Open field exploratory activity” value is on record as 258.7±316.6 squares traversed.

These data come from US20120046302A1, “METHODS OF TREATING CNS DISORDERS” (priority 2008, published 2012).
